Assay results reported in patent US20040138316A1 (priority 2001, published 2004).

Legend:
man = conditions: cited from earlier work; for toxicity for man: prior art fumigants
parasites = conditions: prior art fumigants; cited from earlier work
[1] = system: mites, larvae and adult forms of cheese fly
Protocol: Subsequent tests were conducted in a closed chamber consisting of a box (70 cm×50 cm by 120 cm high) with polypropylene walls as this material is among those not attacked by Hexane such as other synthetic plastic materials among which polyethylene, polyester, polyethylene terephthalates in addition to aluminum, copper, carbon steel and stainless steel. […] On the bottom of this box was located a circular aluminum tank (dia. 22 cm×height 15 cm) on the bottom of which was arranged a copper coil in which was circulated hot liquid to heat to evaporation the Hexane fed into the tank. The material to be tested was placed in the box which was then closed hermetically.
Tests were performed with two different techniques, to wit, at reduced pressure and at atmospheric pressure.
Both by the reduced pressure technique and the atmospheric pressure technique quantities of Hexane variable from 50 ml to 800 ml were fed through a second tap having in it a silicon tube drawing from the bottom of the aluminum tank. By circulating hot liquid in the heating coil the Hexane present in liquid phase in the tank was held at a temperature of 70° C. to 75° C. for the entire period of experimentation in order to achieve complete evaporation of the Hexane. A blower was placed on the bottom of the box for homogeneous distribution of the Hexane vapors in the treatment environment.
The temperature in the box during all the tests and as a function of the material to be treated (biological or not), was included in the range 5° C. to 75° C. The duration of the treatment was between 1 and 72 hours for both procedures (atmospheric pressure or reduced pressure). In the reduced-pressure tests the pressure was held in a range of 0.5N/cm2 to 5N/cm2.
At the end of treatment time the box was reopened and the Hexane vapors allowed to free themselves outward.
(§1) Arthropods were introduced both on nonbiological supports such as glass, printed paper, differently colored fabrics (cotton, silk, linen, skin, wool and synthetic) and on biological materials such as ham, hard wheat pasta and hard crust cheeses. […] Also treated was biological material infested by mites, larvae and adult forms of cheese fly and Galleria mellonella using the entire set of tests described above.

insects = system: insects
Protocol: (§2) Laboratory tests were carried out preliminarily both in a ventilated environment and a confined environment by means of treatments by contact or inhalation with 100% commercial n-Hexane, for the sake of brevity called hereinafter “Hexane” with reference to the performance of the practical experimental tests whose execution procedures follow.

mites = system: mites
Protocol: as §2

[2] = treated products
Text: as §1

ClC(Cl)(Cl)Cl [Carbon tetrachloride]
toxicity for man (man): less toxic than carbon sulfide
insecticidal / parasiticidal effectiveness (parasites): slight parasiticidal power

C1CO1 [Ethylene oxide]
toxicity for man (man): highly toxic

CCCCCC [Hexane, n-Hexane]
effect on mites and insects infesting cheese products, mattresses, cushions, sheets, carpet, drapes ([1]; Hexane vapors, closed chamber): same result
effect on parasites infesting ham and dressed pork products ([1]; after 2 hours exposure to Hexane vapors, mites, larvae and adult forms of cheese fly): desired effect on nearly all parasites
reclamation of the product (ham, dressed pork products) ([1]; after 48 hours of treatment): complete reclamation
outcome of closed chamber tests compared with Petri capsule ([1]; approximately 720 g per m3 of air, up to 72 hours, surrounding temperature, atmospheric pressure): confirmed the results obtained in Petri capsule
concentration at which parasiticidal treatment is already considerably effective ([1]; inhalation): 250 g per cubic meter of air
toxicity index for man following contact (man; contact): low toxicity index
acute toxicity index for man by inhalation (man; inhalation): high acute toxicity index
abatement power on flies, mosquitoes, cockroaches, corrodentia, thysanura (insects; contact): high abatement power
toxic effect on insects by contact (insects; ventilated environment): significant toxic effect
mites dead 15 minutes after treatment (mites; Petri capsule, treatments of 15 minutes to two hours): all the mites present
toxic activity on arthropods by inhalation (mites; Petri capsule, verifiable after only a few minutes treatment): strong toxic activity
arthropods returned to life within 15 days (mites; returned to optimal conditions 18-20 °C, 80% RH after treatment): none of them returned to life
toxic effect on eggs (hatching) (mites; treatment for longer periods of time): strong hatching reduction
toxic effect on mites by contact (mites; ventilated environment): weak, temporary toxic effect
accumulation of toxic substances after treatment [2]: no accumulation of toxic substances

CBr [Methyl bromide]
toxicity for man (man): very poisonous

S=C=S [carbon sulfide]
toxicity for man (man): high toxicity
insecticidal / parasiticidal effectiveness (parasites): high insecticidal effectiveness
